Measured values as given in ChEMBL document CHEMBL3885861, “Open TG-GATES”.

Organism: Rattus norvegicus
Assay: Open TG-GATES - Regimen: Single
Assay type: toxicity, organism-based, Sprague-Dawley
Design: regimen Single, gender Male, age 6 weeks
Details: in vivo, po, 45 mg/kg, route gavage, dose level Low; for APTT / Bas / Eos / Fbg / Hb / Ht / Lym / MCH / MCHC / MCV / Mono / Neu / PT / Plat / RBC / Ret / WBC: tissue Blood; for KIDNEY_L / KIDNEY_R / KIDNEY_TOTAL: tissue Kidney; for LIVER: tissue Liver; for ALP / ALT / AST / BUN / CRE / DBIL / GLC / K / LDH / Na / PL / RALB / TBIL / TC / TG / TP / gamma-GTP: tissue Plasma

CC(CCc1ccccc1)NCC(O)c1ccc(O)c(C(N)=O)c1 (stereo unspecified) [LABETALOL]
TERMINAL_BW (3 h): 214.4 g
APTT (3 h): 16 s
Bas (3 h): 0%
Eos (3 h): 1%
Fbg (3 h): 265.8 mg/dL
Hb (3 h): 13 g/dL
Ht (3 h): 38.2%
Lym (3 h): 78.2%
MCH (3 h): 22.2 pg
MCHC (3 h): 33.9%
MCV (3 h): 65.5 fL
Mono (3 h): 3.2%
Neu (3 h): 16.6%
PT (3 h): 13.1 s
Plat (3 h): 103.6 x10_4/uL
RBC (3 h): 584 x10_4/ul
Ret (3 h): 8.6%
WBC (3 h): 63.4 x10_2/uL
KIDNEY_L (3 h): 0.9 g
KIDNEY_R (3 h): 0.9 g
KIDNEY_TOTAL (3 h): 1.8 g
LIVER (3 h): 9.7 g
ALP (3 h): 1420.4 IU/L
ALT (3 h): 42.2 IU/L
AST (3 h): 70.8 IU/L
BUN (3 h): 11.6 mg/dL
CRE (3 h): 0.2 mg/dL
DBIL (3 h): 0.014 mg/dL
GLC (3 h): 190.2 mg/dL
K (3 h): 3.8 meq/L
LDH (3 h): 56.2 IU/L
Na (3 h): 143 meq/L
PL (3 h): 147.4 mg/dL
RALB (3 h): 2.6 g/dL
TBIL (3 h): 0.044 mg/dL
TC (3 h): 83.6 mg/dL
TG (3 h): 60.4 mg/dL
TP (3 h): 5.4 g/dL
gamma-GTP (3 h): 1 IU/L
TERMINAL_BW (6 h): 214.9 g
APTT (6 h): 16.1 s
Bas (6 h): 0%
Eos (6 h): 1%
Fbg (6 h): 287.6 mg/dL
Hb (6 h): 12.8 g/dL
Ht (6 h): 37.8%
Lym (6 h): 75.6%
MCH (6 h): 21.4 pg
MCHC (6 h): 33.8%
MCV (6 h): 63.3 fL
Mono (6 h): 2.4%
Neu (6 h): 20.6%
PT (6 h): 13.1 s
Plat (6 h): 116.3 x10_4/uL
RBC (6 h): 596.4 x10_4/ul
Ret (6 h): 8.2%
WBC (6 h): 76.9 x10_2/uL
KIDNEY_L (6 h): 0.9 g
KIDNEY_R (6 h): 0.9 g
KIDNEY_TOTAL (6 h): 1.9 g
LIVER (6 h): 8.9 g
ALP (6 h): 1402 IU/L
ALT (6 h): 40.2 IU/L
AST (6 h): 73 IU/L
BUN (6 h): 9.6 mg/dL
CRE (6 h): 0.2 mg/dL
DBIL (6 h): 0.01 mg/dL
GLC (6 h): 180.4 mg/dL
K (6 h): 3.9 meq/L
LDH (6 h): 46 IU/L
Na (6 h): 142.8 meq/L
PL (6 h): 135.8 mg/dL
RALB (6 h): 2.5 g/dL
TBIL (6 h): 0.038 mg/dL
TC (6 h): 82.4 mg/dL
TG (6 h): 50.6 mg/dL
TP (6 h): 5.4 g/dL
gamma-GTP (6 h): 1.2 IU/L
TERMINAL_BW (9 h): 212.6 g
APTT (9 h): 16.8 s
Bas (9 h): 0%
Eos (9 h): 1%
Fbg (9 h): 293.4 mg/dL
Hb (9 h): 12.9 g/dL
Ht (9 h): 38.5%
Lym (9 h): 79.4%
MCH (9 h): 21.3 pg
MCHC (9 h): 33.7%
MCV (9 h): 63.3 fL
Mono (9 h): 1.8%
Neu (9 h): 17.2%
PT (9 h): 13.3 s
Plat (9 h): 106.4 x10_4/uL
RBC (9 h): 608.2 x10_4/ul
Ret (9 h): 8.2%
WBC (9 h): 70.4 x10_2/uL
KIDNEY_L (9 h): 0.9 g
KIDNEY_R (9 h): 0.9 g
KIDNEY_TOTAL (9 h): 1.9 g
LIVER (9 h): 8.1 g
ALP (9 h): 1452.8 IU/L
ALT (9 h): 43.6 IU/L
AST (9 h): 69 IU/L
BUN (9 h): 9.6 mg/dL
CRE (9 h): 0.2 mg/dL
DBIL (9 h): 0.008 mg/dL
GLC (9 h): 184.2 mg/dL
K (9 h): 3.9 meq/L
LDH (9 h): 46.2 IU/L
Na (9 h): 143.6 meq/L
PL (9 h): 136 mg/dL
RALB (9 h): 2.5 g/dL
TBIL (9 h): 0.038 mg/dL
TC (9 h): 81.8 mg/dL
TG (9 h): 39.6 mg/dL
TP (9 h): 5.3 g/dL
gamma-GTP (9 h): 1 IU/L
TERMINAL_BW (24 h): 226.1 g
APTT (24 h): 16.2 s
Bas (24 h): 0%
Eos (24 h): 1.2%
Fbg (24 h): 284.4 mg/dL
Hb (24 h): 13.5 g/dL
Ht (24 h): 39.1%
Lym (24 h): 78%
MCH (24 h): 21.9 pg
MCHC (24 h): 34.6%
MCV (24 h): 63.3 fL
Mono (24 h): 2.8%
Neu (24 h): 17.6%
PT (24 h): 12.8 s
Plat (24 h): 112.9 x10_4/uL
RBC (24 h): 618.6 x10_4/ul
Ret (24 h): 8.2%
WBC (24 h): 80.8 x10_2/uL
KIDNEY_L (24 h): 1 g
KIDNEY_R (24 h): 1 g
KIDNEY_TOTAL (24 h): 1.9 g
LIVER (24 h): 10.4 g
ALP (24 h): 1933.8 IU/L
ALT (24 h): 53.2 IU/L
AST (24 h): 82.2 IU/L
BUN (24 h): 14.8 mg/dL
CRE (24 h): 0.2 mg/dL
DBIL (24 h): 0.018 mg/dL
GLC (24 h): 181.8 mg/dL
K (24 h): 4.1 meq/L
LDH (24 h): 87.4 IU/L
Na (24 h): 142 meq/L
PL (24 h): 150.8 mg/dL
RALB (24 h): 2.7 g/dL
TBIL (24 h): 0.032 mg/dL
TC (24 h): 81.8 mg/dL
TG (24 h): 119 mg/dL
TP (24 h): 5.7 g/dL
gamma-GTP (24 h): 1.2 IU/L
